≈ marks a conversion by molar mass, not a printed value.
Legend:
[1] = tested on: Staphylococcus aureus; assay: Antibacterial activity against methicillin-resistant Staphylococcus aureus TCH1516 assessed as growth inhibition incubated for 20 hrs by CLSI based broth microdilution method; type: functional
[2] = tested on: Escherichia coli; assay: Antibacterial activity against Escherichia coli LptD4213 assessed as growth inhibition incubated for 20 hrs by CLSI based broth microdilution method; type: functional

SMILES	MIC [1] [µg/mL]	MIC [2] [µg/mL]
Cc1cc(O)c2c3c1C(=O)C=C1C(C)(C)C(=O)c4c(O)cc(O)c(c4[C@@]13O)C2=O	0.25 (≈ 0.637 µM)	64 (≈ 163 µM)
Cc1cc(O)c2c3c1C(=O)C=C1C(C)(C)C(=O)c4c(O)c(Cl)c(O)c(c4[C@@]13O)C2=O	2 (≈ 4.69 µM)	128 (≈ 300 µM)
Cc1cc(O)c2c3c1C(=O)C(Cl)=C1C(C)(C)C(=O)c4c(O)cc(O)c(c4[C@@]13O)C2=O	0.25 (≈ 0.586 µM)	32 (≈ 75 µM)
Cc1cc(O)c2c3c4c(cc(O)c13)C(C)(C)C(=O)c1c(O)cc(O)c(c1-4)C2=O [HELIOMYCIN]	0.125 (≈ 0.332 µM)	32 (≈ 85 µM)

— ChEMBL document CHEMBL5136988, “Chlororesistoflavins A and B, Chlorinated Benzopyrene Antibiotics Produced by the Marine-Derived Actinomycete Streptomyces sp. Strain EG32” (2022)
